This is an account of results in ChEMBL document CHEMBL1201862, “PubChem BioAssay data set” (2004).

Test systems include COLO 205; RPMI-8226; UACC-257; OVCAR-3; MDA-MB-231; UACC-62; SK-MEL-28; SF-268; HCT-116; OVCAR-5; SK-OV-3; SN12C; MDA-MB-435; KM12; EKVX; SF-539; HT-29; MOLT-4; NCI-H522; HL-60.
Common to all, as to experiment: DTP human tumour cell line panel, 48 h

SMILES strings stand for the structures.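 Step 1: Grow cells in 96-well plates. Step 2: Expose to compound for 48 hours at 5 concentrations. Step 3: Interpolate endpoints linearly; if unreached, use highest concentration. Here, GI50 denotes the concentration required for 50% inhibition of growth.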 Active and inactive are the calls of the source. Cut-off read from the data, not from the text of the source: active = GI50 up to about 1.1 µM and inactive = higher.

In general, GI50 refers to the concentration at which growth is held to half of that of the control. On to `COC(=O)[C@@]12OC[C@]34[C@H]([C@@H](O)[C@@H]1O)[C@@]1(C)CC(=O)C(O)=C(C)[C@@H]1C[C@H]3OC(=O)[C@H](OC(=O)/C=C(\C)C(C)C)[C@@H]24` [BRUCEANTIN], for which the GI50 is 0.0242 µM (active) in the test on COLO 205; 0.02 µM (active) in the test with RPMI-8226; 0.0208 µM (active) with UACC-257; 0.0247 µM (active) with OVCAR-3; 0.0384 µM (active) with MDA-MB-231; 0.02 µM (active) in the test on UACC-62. For the same molecule, the GI50 in the test with SK-MEL-28 was 0.02 µM (active); with SF-268, 0.0205 µM (active); in the test on HCT-116, 0.02 µM (active); in the test with OVCAR-5 it was 0.0265 µM (active); in the test on SK-OV-3 it was 0.02 µM (active); in the test on SN12C, 0.0222 µM (active). The GI50 in the test on MDA-MB-435 is 0.0188 µM (active); in the test on KM12 it was 0.02 µM (active); in the test with EKVX, 0.0223 µM (active); in the test with SF-539, 0.02 µM (active); in the test with HT-29, 0.02 µM (active); in the test on MOLT-4 it was 0.02 µM (active).
In the case of `COc1cc2c(cc1OCCCN1C(=O)c3cccc4cccc(c34)C1=O)N=C[C@@H]1CCCN1C2=O`, the GI50 with COLO 205 was 18.5 µM (inactive); in the test on RPMI-8226 it was 18.2 µM (inactive); with UACC-257, 40.1 µM (inactive); in the test with OVCAR-3 it was 32.8 µM (inactive); in the test on MDA-MB-231, > 55.8 µM (inactive); with UACC-62, > 62.7 µM (inactive). In addition, the GI50 is > 65.9 µM (inactive) in the test on SK-MEL-28; 14.3 µM (inactive) with NCI-H522; 39.6 µM (inactive) with SF-268; 36.1 µM (inactive) in the test with HCT-116; > 89.1 µM (inactive) in the test with OVCAR-5; > 100 µM (inactive) with SK-OV-3. Besides, the GI50 was 48.5 µM (inactive) in the test on SN12C; 40.1 µM (inactive) in the test with MDA-MB-435; 16.3 µM (inactive) in the test on KM12; > 100 µM (inactive) in the test on EKVX; 83.6 µM (inactive) in the test on SF-539; 31.3 µM (inactive) with HT-29. The GI50 in the test with MOLT-4 was 14 µM (inactive).
Regarding `O=C(/C=C/c1ccccc1)Oc1cccc2cccnc12`, the GI50 was 14.5 µM (inactive) in the test with COLO 205; 4.38 µM (inactive) with RPMI-8226; 2.88 µM (inactive) in the test with UACC-257; 2.96 µM (inactive) in the test with OVCAR-3; 5.47 µM (inactive) in the test with UACC-62; 16.4 µM (inactive) in the test on SK-MEL-28. In addition, the GI50 in the test on NCI-H522 was 1.09 µM (active); in the test with SF-268 it was 2.23 µM (inactive); in the test with HCT-116 it was 3.33 µM (inactive); in the test with OVCAR-5, 14.7 µM (inactive); with SK-OV-3 it was 41.1 µM (inactive); in the test on SN12C, 3.97 µM (inactive). The GI50 in the test on HL-60 is 3.01 µM (inactive); in the test on KM12 it was 8.39 µM (inactive); with EKVX, 6.65 µM (inactive); in the test on SF-539, 3.93 µM (inactive); with HT-29, 7.93 µM (inactive); in the test on MOLT-4, 3.2 µM (inactive).
Take `[O-][n+]1c(-c2ccccc2)oc2ccccc21`: the GI50 with COLO 205 is 18.6 µM (inactive); in the test on RPMI-8226, > 22.6 µM (inactive); in the test on UACC-257 it was 7.71 µM (inactive); in the test on OVCAR-3, 18.5 µM (inactive); in the test on UACC-62, 8.69 µM (inactive); with SK-MEL-28 it was 18.1 µM (inactive). Also, the GI50 with NCI-H522 was 12 µM (inactive); with SF-268, 26.9 µM (inactive); with HCT-116, 13.1 µM (inactive); in the test on OVCAR-5, 33.8 µM (inactive); in the test on SK-OV-3, > 67.5 µM (inactive); with SN12C, 14.4 µM (inactive). The GI50 in the test on HL-60 is 5.28 µM (inactive); in the test on KM12 it was 17.3 µM (inactive); in the test on EKVX it was 26.7 µM (inactive); in the test with SF-539, 16.3 µM (inactive); in the test on HT-29, 21.4 µM (inactive); in the test with MOLT-4 it was > 69.7 µM (inactive).
As to `CC(=O)Nc1ccccc1S(=O)(=O)c1ccccc1`, the GI50 in the test on COLO 205, with RPMI-8226, in the test on UACC-257, in the test on OVCAR-3, in the test with UACC-62 and in the test on SK-MEL-28 was > 100 µM (inactive) throughout. Besides, the GI50 was > 100 µM (inactive) in the test on NCI-H522; > 100 µM (inactive) in the test with SF-268; > 100 µM (inactive) in the test on HCT-116; 0.0409 µM (active) with OVCAR-5; > 100 µM (inactive) in the test with SK-OV-3; > 100 µM (inactive) in the test with SN12C. Besides, the GI50 with HL-60, in the test on KM12, with EKVX, with SF-539, in the test with HT-29 and in the test on MOLT-4 was > 100 µM (inactive) each time.
For `CCN(CC)CCNc1ccc2ncn3c4cc(O)ccc4c(=O)c1c23`, the GI50 is 2.41 µM (inactive) in the test on COLO 205; 2.17 µM (inactive) in the test with RPMI-8226; 5.37 µM (inactive) in the test with UACC-257; 3.37 µM (inactive) with OVCAR-3; 5.65 µM (inactive) with UACC-62; 4.73 µM (inactive) in the test on SK-MEL-28. Besides, the GI50 was 1.22 µM (inactive) in the test on NCI-H522; 2.09 µM (inactive) in the test with SF-268; 1.57 µM (inactive) with HCT-116; 11 µM (inactive) in the test on OVCAR-5; 9.62 µM (inactive) in the test on SK-OV-3; 3.11 µM (inactive) in the test on SN12C. Also, the GI50 with HL-60 was 2.84 µM (inactive); in the test on KM12 it was 4.61 µM (inactive); in the test on EKVX it was 8.77 µM (inactive); in the test on SF-539 it was 3.25 µM (inactive); in the test on HT-29 it was 1.95 µM (inactive); in the test with MOLT-4 it was 0.668 µM (active).
Take `Nn1c(CCCCCCCCc2nnc(COc3ccc4ccccc4c3O)n2N)nnc1COc1ccc2ccccc2c1O`: the GI50 was 19.5 µM (inactive) with COLO 205; 22.3 µM (inactive) with RPMI-8226; 39.9 µM (inactive) with UACC-257; 23.2 µM (inactive) with MDA-MB-231; 26.4 µM (inactive) with UACC-62; 32.4 µM (inactive) with SK-MEL-28. Moreover, the GI50 with NCI-H522 was 14.6 µM (inactive); in the test with SF-268, 29.8 µM (inactive); with HCT-116 it was 9.75 µM (inactive); with OVCAR-5, 14.2 µM (inactive); with SK-OV-3, 44 µM (inactive); in the test with SN12C it was 39.3 µM (inactive). Moreover, the GI50 is 29.9 µM (inactive) with MDA-MB-435; 18.7 µM (inactive) in the test on KM12; 43.7 µM (inactive) with EKVX; 25.3 µM (inactive) in the test with HT-29; 14.9 µM (inactive) in the test on MOLT-4.
For the molecule `CSC[S+]([O-])C[C@H](CO)NC(=O)/C=C/c1c(C)[nH]c(=O)[nH]c1=O` (some centres not stated), the GI50 in the test with COLO 205 is 1.43 µM (inactive); in the test on RPMI-8226, 1.79 µM (inactive); in the test on UACC-257, 1.38 µM (inactive); in the test on OVCAR-3, 1.13 µM (inactive); with UACC-62, 1.01 µM (active); in the test with SK-MEL-28, 0.767 µM (active). Moreover, the GI50 in the test with NCI-H522 is 0.731 µM (active); in the test on SF-268, 0.277 µM (active); in the test with HCT-116, 1.66 µM (inactive); with OVCAR-5, 2.06 µM (inactive); with SK-OV-3, 1.25 µM (inactive); with SN12C it was 0.776 µM (active). Further, the GI50 with HL-60 was 1.2 µM (inactive); with KM12, 1.34 µM (inactive); with EKVX, 1.87 µM (inactive); in the test on SF-539 it was 0.741 µM (active); in the test on HT-29, 1.85 µM (inactive); in the test on MOLT-4, 1.92 µM (inactive).
As for `Cc1ccc(S(=O)(=O)NC(=O)NC(C(=O)O)C(C)C)cc1` (configuration not stated), the GI50 in the test on COLO 205, in the test on RPMI-8226, in the test on UACC-257, with MDA-MB-231, in the test on UACC-62 and in the test with SK-MEL-28 was > 100 µM (inactive) throughout. Moreover, the GI50 with NCI-H522, with SF-268, in the test on HCT-116, in the test with OVCAR-5, with SK-OV-3 and with SN12C was > 100 µM (inactive) each time. In addition, the GI50 in the test with HL-60, in the test on KM12, in the test with SF-539, in the test on HT-29 and with MOLT-4 was > 100 µM (inactive) each time.
`CCOC(=O)c1nc2ccccc2nc1Oc1ccc(C(=O)OC)cc1`: the GI50 in the test on COLO 205, in the test on RPMI-8226, in the test with UACC-257, in the test on OVCAR-3, in the test with MDA-MB-231 and in the test with UACC-62 was > 100 µM (inactive) throughout. Also, the GI50 in the test with SK-MEL-28, with SF-268, in the test on HCT-116, with OVCAR-5, in the test on SK-OV-3 and in the test with SN12C was > 100 µM (inactive) in each case. Besides, the GI50 is > 100 µM (inactive) in the test with MDA-MB-435; > 100 µM (inactive) with KM12; > 100 µM (inactive) with EKVX; > 100 µM (inactive) in the test on SF-539; > 100 µM (inactive) with HT-29; 2.87 µM (inactive) with MOLT-4.
For `CC12CO[C@@](C)(CC(S(=O)(=O)c3ccccc3)C1)O2` (some centres not stated), the GI50 in the test on COLO 205, in the test with RPMI-8226, in the test on UACC-257, in the test on OVCAR-3, with UACC-62 and with SK-MEL-28 was > 100 µM (inactive) each time. For the same molecule, the GI50 with NCI-H522, in the test with SF-268, in the test on HCT-116, in the test on OVCAR-5, with SK-OV-3 and with SN12C was > 100 µM (inactive) throughout. The GI50 in the test with HL-60, with KM12, in the test with EKVX, in the test with SF-539, in the test with HT-29 and in the test with MOLT-4 was > 100 µM (inactive) each time.
